Data on two compounds can be found in patent US7910574B2, “Treatments for the control of schistosomiasis” (Illinois State University, priority 2007, dated 2011).

Data set [1] relates to parasite lactate dehydrogenase. Kind of data set: Lactate dehydrogenase control enzyme activity in homogenates of treated worms. Format: cell-based, Schistosoma mansoni. The settings on record: 10 μM, treated worm homogenates.
In data set [2] the test system is murine myeloma cell line SP2/0. The data set is described as follows: Cytotoxicity assay (sulforhodamine B). Format: cell-based. On the procedure: To examine if furoxan is tolerated by mammalian cells, we incubated the murine myeloma cell line SP2/0 with the drugs at given concentrations and monitored cell viability at 24 hr and 120 hr. At 120 hr in 2 μM furoxan ˜25% mortality of myeloma cells was observed compared to 100% mortality of adult S. mansoni worms at the same concentration. Myeloma cells tolerated furoxan at concentrations as high as 100 μM. Differential cytotoxicity of furoxan on the worm survival and myeloma cells were also seen after 24 hrs of drug application.
Cytotoxicity assays were performed using sulforhodamine B to determine cellular protein content. Murine myeloma cell line SP2/0 was cultured in 96-well microtiter plates containing 0.2 ml of RPMI-1640 per well at a cell density of 900 per well at 37° C. in 5% CO2. Cells were treated with drug concentrations (or drug carrier alone) for times as indicated. After treatment, cells were fixed with 10% TCA at 4° C. for 1 hr. Fixed cells were rinsed to remove fixative and then stained in 0.4% (wt/vol) sulforhodamine B (Sigma) in 1% acetic acid for 35 min. After washing with 1% acetic acid and dye extraction in 10 mM Tris (pH 10.5), plates were read at A564 nm. The A564 nm of drug-treated cells was compared to carrier-only-treated cells.

A further data set has as its system S. mansoni infected mice. The data set is described as follows: In vivo drug treatment of S. mansoni infected mice. Conditions: for decrease in worm burden vs control infected mice: perfusion day 49. On the set-up: species or system Schistosoma mansoni.
Data set [3] concerns the target recombinant S. mansoni TGR (Schistosoma mansoni, UniProt Q962Y6). The data set is described as follows: NO release with recombinant SmTGR (ABTS oxidation). Conditions: 10 μM oxadiazole, 15 nM SmTGR, P<0.05. The data set is classed as biochemical. On the procedure:
Because oxadiazoles are known to release nitric oxide (NO) at physiological levels of thiols, we examined if NO release played a part in their mechanism of action (TGR inhibition and worm killing). […] The NO releasing capability of oxadiazoles was next tested with recombinant S. mansoni TGR enzyme with and without NADPH.
NO release by different oxadiazoles was determined by 2,2′-azino-bis(3-ethylbenzthiazoline-6-sulphonic acid) [ABTS, Sigma] oxidation method [Nims et al, Methods 7, 48-54; 1995]. Different oxadiazoles at 10 μM were incubated at RT for 50 minutes with 15 nM recombinant SmTGR in the presence or absence of 100 μM NADPH. The (oxadiazole+SmTGR/±NADPH) mixture was then added to an aerobic PBS, pH 7.4, containing 5 mM ABTS. The absorbance of the resulting green ABTS^+ were measured at A660. A conversion factor was calculated to adjust the readings from 1 ml reaction to 96-well plate. The concentrations of the released NO were calculated as a percentage of the added oxadiazoles. Each reaction was done in triplicate and the data is the average of three independent experiments. […] The slope of the regression line was calculated and used to recalculate the data at A660 in 200 μl reaction [Nims et al, Methods 7, 48-54; 1995].

In data set [4] the test system is adult S. mansoni worms.
For data set [5] the following is noted: 10 mg/kg once a day, 5 days, ip; cited from earlier work.
In another data set the target is TGR (Schistosoma mansoni, UniProt Q962Y6). The data set is described as follows: Mode of TGR inhibition. Conditions: through release of NO.
Data set [6] relates to adult S. mansoni worms. The data set is described as follows: microbe, parasite or virus in culture. Conditions: Schistosoma mansoni.
Data set [7] deals with parasite TGR (thioredoxin reductase activity) (Schistosoma mansoni, UniProt Q962Y6). The data set is described as follows: Thioredoxin reductase activity of TGR in homogenates of treated cultured worms. Conditions: 10 μM, 18 hrs treatment of cultured worms.
Description: (§1) Freshly perfused adult S. mansoni worms were cultured with 10 μM furoxan or 50 μM NBPPTA. […] The activity of lactate dehydrogenase was monitored as a control enzyme.
(§2) Enzyme assays were performed at 25° C. in 0.1 M potassium phosphate, pH 7.4, 10 mM EDTA. Thioredoxin reductase activity of TGR was determined using either 3 mM 5,5′ dithiobis(2-nitrobenzoic acid) (DTNB, Ellman's reagent) or 16 μM recombinant S. mansoni thioredoxin-1 (Alger et al 2002). One enzyme unit was defined as the NADPH-dependent production of 2 μmol of 2-nitro-5-thiobenzoic acid per minute using ε412 nm=13.6 mM^−1 cm^−1 or the consumption of 1 μmol of NADPH (ε340 nm=6.22 mM^−1 cm^−1) during the first three minutes. Glutathione reductase activity was determined with 100 μM GSH disulfide and 100 μM NADPH by measuring the decrease in A340 nm due to consumption of NADPH (ε340 nm=6.22 mM^−1 cm^−1) during the first three minutes. Activity of the control enzyme lactate dehydrogenase (LDH) was determined with 10 μM sodium pyruvate and 100 μM NADPH. Each assay was done in triplicate and each experiment was repeated three times.
(§3) Compounds were dissolved in dimethylsulfoxide (DMSO) and added at concentrations indicated to freshly perfused worms in RPMI1640 containing 25 mM Hepes, pH 7, 150 units/ml penicillin, 125 μg/ml streptomycin, and 10% fetal calf serum (Cell Grow, Fisher). […]
Data set [8] deals with parasite TGR (GSH reductase activity) (Schistosoma mansoni, UniProt Q962Y6). Kind of data set: Glutathione reductase activity of TGR in homogenates of treated cultured worms. The settings on record: 10 μM, 18 hrs treatment of cultured worms.
Description: as §1, §2, §3
The subject of data set [9] is S. mansoni infections in mice. Conditions: juvenile liver parasites targeted, mouse model; cited from earlier work.

Sequence of recombinant S. mansoni TGR (Q962Y6 1-598): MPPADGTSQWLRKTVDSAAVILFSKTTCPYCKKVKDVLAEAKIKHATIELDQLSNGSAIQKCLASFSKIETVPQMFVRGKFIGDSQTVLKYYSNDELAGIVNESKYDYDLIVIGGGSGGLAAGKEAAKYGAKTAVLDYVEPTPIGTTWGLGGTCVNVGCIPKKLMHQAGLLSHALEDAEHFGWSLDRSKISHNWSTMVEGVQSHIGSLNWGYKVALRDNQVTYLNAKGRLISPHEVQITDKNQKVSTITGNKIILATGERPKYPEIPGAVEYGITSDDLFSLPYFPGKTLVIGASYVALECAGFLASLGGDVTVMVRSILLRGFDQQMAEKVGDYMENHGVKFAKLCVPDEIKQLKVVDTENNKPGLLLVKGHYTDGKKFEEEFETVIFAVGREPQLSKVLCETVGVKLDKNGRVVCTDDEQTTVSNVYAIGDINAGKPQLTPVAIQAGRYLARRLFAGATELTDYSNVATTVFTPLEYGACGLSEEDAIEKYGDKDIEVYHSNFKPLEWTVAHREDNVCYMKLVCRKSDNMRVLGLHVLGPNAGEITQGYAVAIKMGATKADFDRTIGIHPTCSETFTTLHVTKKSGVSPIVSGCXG
Sequence of TGR (Q962Y6 1-598): as above
Sequence of parasite TGR (GSH reductase activity) (Q962Y6 1-598): as above
Sequence of parasite TGR (thioredoxin reductase activity) (Q962Y6 1-598): as above

Usually inhibition stands for the change of the read-out against control, counted positive when it falls. For orientation: mortality means the share of the test organisms that died. On to `N#Cc1c(-c2ccccc2)no[n+]1[O-]` [Analogue 9], for which the “activity of parasite lactate dehydrogenase vs carrier only treated worms” value in [1] was “no significant change”. Besides, the “concentration tolerated by myeloma cells” value in [2] is at most 100 µM. Further, the “mortality of myeloma cells” value in [2] (2 μM, 120 hr) is about 25%. The “reduction in worm burdens, all trials in mice” value in the data set with S. mansoni infected mice (10 mg/kg, regardless of lifecycle stage) is listed as at least 89%. Further, the adult parasites recovered entry with S. mansoni infected mice (early stage treatment (treatment 1), total from the eight mice infected) is listed as “one”. Further, the liver egg granulomas entry in the data set with S. mansoni infected mice (treatment 1 (skin stage)) is “no signs of egg granulomas”. Further, the “hepatomegaly vs control infected mice” value in the data set with S. mansoni infected mice (treatment 1 (skin stage), P<0.0001) is listed as “reduction of hepatomegaly”. In addition, the “decrease in worm burden vs control infected mice” value with S. mansoni infected mice (treatment 1: 10 mg/kg ip once daily x5 from day 1 after infection (skin stage)) is given as over 99%; in the data set on S. mansoni infected mice (treatment 2: 10 mg/kg ip once daily x5 from day 23 (juvenile liver stage)), 89%; in the data set with S. mansoni infected mice (treatment 3: 10 mg/kg ip once daily x5 from day 37 (adult egg laying)), 94%. The “number of liver granulomas vs control infections” value in the data set on S. mansoni infected mice (treatment 2 (juvenile liver stage)) is “considerably reduced”. In addition, the “hepato- and splenomegaly vs control infected mice” value in the data set with S. mansoni infected mice (treatment 2 (juvenile liver stage), P<0.0001) was “dramatic reductions in hepato- and splenomegaly”. In addition, in the data set with S. mansoni infected mice (treatment 3 (adult stage)), the “egg-induced liver granulomas vs control group” value is “greatly reduced number”. Further, the “hepatomegaly vs control group” value in the data set with S. mansoni infected mice (treatment 3 (adult stage), P<0.0001) was “dramatic reduction in hepatomegaly”. Also, the “NO release relative to the other oxadiazoles tested” value came out at 10 × in data set [3] (+NADPH) and 3 × in data set [3] (−NADPH). In the data set on adult S. mansoni worms [4] (0.38 μg/ml, longer times), the “activity against adult parasites” value is “active”. In addition, the “time to kill worms” value in the data set with adult S. mansoni worms [4] (2 μM) is 120 h. Besides, the “worm viability with NO scavenger” value with adult S. mansoni worms [4] (10 μM furoxan with 100 μM carboxy-PTIO) is listed as “extended”. Further, in the data set with adult S. mansoni worms [4] (10 μM, within 24 hr, axenically cultured adult worms), the parasite death stood at 100%. In [5], the tolerability in mice entry was “well tolerated”. For the same compound, at TGR, the “mode of inhibition of TGR” value is reported as “time-dependent irreversible inhibition”. For the same compound, the inhibition at 1.87 µg/mL in the data set on adult S. mansoni worms [6] (24 h, read-out: inhibition of motility of adult parasites) was found to be 100%. Besides, the mortality at 2 µM in the data set with adult S. mansoni worms [6] (120 h, read-out: mortality of adult S. mansoni worms) came out at 100%. In addition, the “reduction of thioredoxin reductase activity of parasite TGR vs carrier control” value in data set [7] is given as 83%. Further, the “reduction of GSH reductase activity of parasite TGR vs carrier control” value in [8] is given as 93%.
For `O=C(C1CCCCC1)N1CC(=O)N2CCc3ccccc3C2C1` (stereo not drawn) [PZQ, praziquantel], in data set [9], the “reduction in worm burdens” value is on record as 25-30%.
